Source: ChEMBL document CHEMBL1201862, “PubChem BioAssay data set” (2004)
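Interpolation was linear, between the two tested concentrations surrounding the appropriate level; five concentrations were tested over 48 hours in 96-well plates. GI50 = concentration required for 50% inhibition of growth.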 Active and inactive are the calls of the source. Rule as the data show it: active = GI50 up to about 1.1 µM and inactive = higher.

Assays:
Assay in all cases: DTP human tumour cell line panel, 48 h
[1] = tested on: HT-29
[2] = tested on: SK-OV-3
[3] = tested on: MDA-MB-435
[4] = tested on: OVCAR-4
[5] = tested on: CAKI-1
[6] = tested on: MDA-N
[7] = tested on: M14
[8] = tested on: TK-10
[9] = tested on: T47D
[10] = tested on: A498
[11] = tested on: SNB-75
[12] = tested on: SNB-19
[13] = tested on: SK-MEL-5
[14] = tested on: SF-295
[15] = tested on: HCT-116
[16] = tested on: 786-0
[17] = tested on: SK-MEL-2
[18] = tested on: K562
[19] = tested on: COLO 205
[20] = tested on: OVCAR-8
[21] = tested on: SR
[22] = tested on: SF-268
[23] = tested on: EKVX
[24] = tested on: HCT-15
[25] = tested on: NCI-H522
[26] = tested on: SK-MEL-28
[27] = tested on: MCF7
[28] = tested on: DU-145
[29] = tested on: Hs-578T
[30] = tested on: KM12
[31] = tested on: UACC-62
[32] = tested on: NCI-H226
[33] = tested on: HOP-92
[34] = tested on: MDA-MB-231
[35] = tested on: ACHN
[36] = tested on: NCI-H23
[37] = tested on: LOX IMVI
[38] = tested on: Malme-3M
[39] = tested on: UO-31
[40] = tested on: OVCAR-5
[41] = tested on: BT-549
[42] = tested on: A549
[43] = tested on: PC-3
[44] = tested on: HOP-62
[45] = tested on: SN12C
[46] = tested on: NCI/ADR-RES
[47] = tested on: UACC-257
[48] = tested on: MOLT-4
[49] = tested on: U-251
[50] = tested on: RXF 393
[51] = tested on: SF-539
[52] = tested on: CCRF-CEM
[53] = tested on: HCC 2998
[54] = tested on: NCI-H460
[55] = tested on: OVCAR-3
[56] = tested on: IGROV-1

Brc1ccc2c3c1[C@H]1O[C@H]1c1cccc(c1-3)[C@@H]1O[C@H]21
GI50 [1]: 8.11 µM (inactive) | GI50 [2]: 19.1 µM (inactive) | GI50 [3]: 15 µM (inactive) | GI50 [4]: 15.1 µM (inactive) | GI50 [5]: 17.8 µM (inactive) | GI50 [6]: 16.9 µM (inactive) | GI50 [7]: 17.2 µM (inactive) | GI50 [8]: 17.7 µM (inactive) | GI50 [9]: 10.3 µM (inactive) | GI50 [10]: 21.2 µM (inactive) | GI50 [11]: 13.2 µM (inactive) | GI50 [12]: 18 µM (inactive) | GI50 [13]: 15 µM (inactive) | GI50 [14]: 15.5 µM (inactive) | GI50 [15]: 13.2 µM (inactive) | GI50 [16]: 12.4 µM (inactive) | GI50 [17]: 18.3 µM (inactive) | GI50 [18]: 2.65 µM (inactive) | GI50 [19]: 19.3 µM (inactive) | GI50 [20]: 15.6 µM (inactive) | GI50 [21]: 20.2 µM (inactive) | GI50 [22]: 17.7 µM (inactive) | GI50 [23]: 18.6 µM (inactive) | GI50 [24]: 21.3 µM | GI50 [25]: 10.4 µM (inactive) | GI50 [26]: 15.9 µM (inactive) | GI50 [27]: 17.4 µM (inactive) | GI50 [28]: 13 µM (inactive) | GI50 [29]: 23.1 µM (inactive) | GI50 [30]: 15.2 µM (inactive) | GI50 [31]: 16.8 µM (inactive) | GI50 [32]: 24.5 µM (inactive) | GI50 [33]: 20.5 µM (inactive) | GI50 [34]: 20.6 µM (inactive) | GI50 [35]: 15.3 µM (inactive) | GI50 [36]: 17.8 µM (inactive) | GI50 [37]: 2.82 µM (inactive) | GI50 [38]: 17.8 µM (inactive) | GI50 [39]: 17.3 µM (inactive) | GI50 [40]: 20.2 µM (inactive) | GI50 [41]: 16.5 µM (inactive) | GI50 [42]: 22 µM (inactive) | GI50 [43]: 16.8 µM (inactive) | GI50 [44]: 14.8 µM (inactive) | GI50 [45]: 17.6 µM (inactive) | GI50 [46]: 22.2 µM (inactive) | GI50 [47]: 14.8 µM (inactive) | GI50 [48]: 3.61 µM (inactive) | GI50 [49]: 14 µM (inactive)

Cc1cc2nnn(C3CCCCO3)c2cc1C (stereo not given)
GI50 [1]: > 100 µM (inactive) | GI50 [2]: > 100 µM (inactive) | GI50 [3]: > 100 µM (inactive) | GI50 [4]: > 100 µM (inactive) | GI50 [5]: > 100 µM (inactive) | GI50 [6]: > 100 µM (inactive) | GI50 [50]: > 100 µM (inactive) | GI50 [51]: > 100 µM (inactive) | GI50 [7]: > 100 µM (inactive) | GI50 [8]: > 100 µM (inactive) | GI50 [9]: 95.5 µM (inactive) | GI50 [52]: > 100 µM (inactive) | GI50 [11]: 88.1 µM (inactive) | GI50 [53]: > 100 µM (inactive) | GI50 [12]: > 100 µM (inactive) | GI50 [13]: > 100 µM (inactive) | GI50 [14]: > 100 µM (inactive) | GI50 [15]: > 100 µM (inactive) | GI50 [16]: > 100 µM (inactive) | GI50 [54]: > 100 µM (inactive) | GI50 [17]: > 100 µM (inactive) | GI50 [18]: > 100 µM (inactive) | GI50 [19]: > 100 µM (inactive) | GI50 [55]: > 100 µM (inactive) | GI50 [20]: > 100 µM (inactive) | GI50 [21]: > 100 µM (inactive) | GI50 [23]: > 100 µM (inactive) | GI50 [24]: > 100 µM | GI50 [25]: > 100 µM (inactive) | GI50 [27]: > 100 µM (inactive) | GI50 [28]: > 100 µM (inactive) | GI50 [29]: > 100 µM (inactive) | GI50 [30]: > 100 µM (inactive) | GI50 [31]: > 100 µM (inactive) | GI50 [32]: > 100 µM (inactive) | GI50 [56]: > 100 µM (inactive) | GI50 [34]: > 100 µM (inactive) | GI50 [35]: > 100 µM (inactive) | GI50 [36]: > 100 µM (inactive) | GI50 [38]: > 100 µM (inactive) | GI50 [39]: 98.2 µM (inactive) | GI50 [40]: > 100 µM (inactive) | GI50 [41]: > 100 µM (inactive) | GI50 [42]: > 100 µM (inactive) | GI50 [43]: > 100 µM (inactive) | GI50 [44]: > 100 µM (inactive) | GI50 [45]: > 100 µM (inactive) | GI50 [46]: > 100 µM (inactive) | GI50 [47]: > 100 µM (inactive) | GI50 [48]: > 100 µM (inactive) | GI50 [49]: > 100 µM (inactive)
